Assay results: patent US6706740B2, “Fungicidal heterocyclic aromatic amides and their compositions, methods of use and preparation” (Dow AgroSciences LLC, priority 1999, dated 2004)
Where two headings read alike, the source gives them in different places.

Tests used:
[1] = tested on: Magnaporthe grisea (Pyricularia oryzae—PYRIOR); experiment: microbe, parasite or virus in culture; type: cell-based; details: Pyricularia oryzae, read-out: PYRIOR in vitro Growth Inhibition
[2] = tested on: Rhizoctonia solani (RHIZSO); experiment: microbe, parasite or virus in culture; type: cell-based; details: Rhizoctonia solani, read-out: RHIZSO in vitro Growth Inhibition
[3] = tested on: Mycosphaerella graminicola (Septoria tritici—SEPTTR); experiment: In vitro fungal growth inhibition, Mycosphaerella graminicola (SEPTTR); type: cell-based; details: Zymoseptoria tritici, read-out: SEPTTR in vitro Growth Inhibition
[4] = tested on: Stagonospora nodorum (Leptosphaeria nodorum—LEPTNO); experiment: In vitro fungal growth inhibition, Stagonospora nodorum (LEPTNO); type: cell-based; details: Leptosphaeria, read-out: LEPTNO in vitro Growth Inhibition
Ustilago maydis (USTIMA) = experiment: microbe, parasite or virus in culture; type: cell-based; details: Mycosarcoma maydis, read-out: USTIMA in vitro Growth Inhibition
[5] = tested on: Phytophthora infestans (PHYTIN); experiment: microbe, parasite or virus in culture; type: cell-based; details: Phytophthora infestans, read-out: PHYTIN in vitro Growth Inhibition
[6] = tested on: Phytophthora infestans—PHYTIN; experiment: whole plant or invertebrate; type: in vivo; details: Phytophthora, in Solanum lycopersicum, 24 h, read-out: PHYTIN in vivo 1 Day Protectant
[7] = tested on: Puccinia recondita—PUCCRT; experiment: Brown Rust of Wheat, in vivo whole plant, 24 Hour Protectant; details: for pest or weed control at 100 ppm: Puccinia, read-out: PUCCRT in vivo 1 Day Protectant
Erysiphe graminis—ERYSGT = experiment: Powdery Mildew of Wheat, in vivo whole plant, 24 Hour Protectant; details: Erysiphe, read-out: ERYSGT in vivo 1 Day Protectant
Septoria tritici—SEPTTR = experiment: Leaf Blotch of Wheat, in vivo whole plant, 24 Hour Protectant; details: for pest or weed control at 100 ppm: Zymoseptoria tritici, 24 h, read-out: SEPTTR in vivo 1 Day Protectant
[8] = tested on: Leptosphaeria nodorum—LEPTNO; experiment: Glume Blotch of Wheat, in vivo whole plant, 24 Hour Protectant; details: for pest or weed control at 100 ppm: Leptosphaeria, read-out: LEPTNO in vivo 1 Day Protectant
[9] = 100 ppm spray, 24 hour protectant, wheat, control of fungal infection vs untreated plants
[10] = 100 ppm spray, wheat, 24 hour protectant, control of fungal infection vs untreated plants

Structure (SMILES) | inhibition at 25 ppm [1] | inhibition at 25 ppm [2] | inhibition at 25 ppm ([3]; 25 ppm in growth medium) | inhibition at 25 ppm ([4]; 25 ppm in growth medium) | inhibition at 25 ppm (Ustilago maydis (USTIMA)) | inhibition at 25 ppm [5] | pest or weed control at 100 ppm [6] | pest or weed control at 100 ppm [7, 9] | pest or weed control at 100 ppm (Erysiphe graminis—ERYSGT; [9]) | pest or weed control at 100 ppm (Septoria tritici—SEPTTR; [9]) | pest or weed control at 100 ppm [8, 9] | further results
COc1ccnc(C(=O)NC/C=C(\C)CCC=C(C)C)c1O [Compound 242] | > 80% | > 80% | > 80% | > 80% | > 80% | > 80% | < 25% | < 25% | < 25% | 25 to 74% | < 25% | 
COc1ccnc(C(=O)N[C@@H](COCc2ccccc2)C(=O)O[C@@H](C)[C@H](OC(=O)C(C)C)[C@@H](Cc2ccccc2)C(=O)OCc2ccccc2)c1O [Compound 342] | < 80% | < 80% | < 80% | < 80% | > 80% | < 80% | < 25% |  |  |  |  | PUCCRT in vivo 1 Day Protectant [7, 10]: + +; pest or weed control at 100 ppm (Erysiphe graminis—ERYSGT; [10]): 25 to 74%; pest or weed control at 100 ppm (Septoria tritici—SEPTTR; [10]): 25 to 74%; pest or weed control at 100 ppm [8, 10]: 25 to 74%
COCCCc1ccc2c(c1)OC(C)C(NC(=O)c1nccc(OC)c1O)C2=O (centres unmarked) [Compound 322] | < 80% | > 80% | < 80% | > 80% | < 80% | < 80% | < 25% | 25 to 74% | 25 to 74% | 25 to 74% | 25 to 74% | 
COc1ccnc(C(=O)N[C@H]2COC(=O)[C@H](Cc3ccccc3)[C@@H](OC(=O)Cc3ccccc3)[C@H](C)OC2=O)c1O [Compound 395] | < 80% | < 80% |  |  | > 80% | < 80% | < 25% |  |  |  |  | inhibition at 25 ppm [3]: > 80%; inhibition at 25 ppm [4]: > 80%; pest or weed control at 100 ppm ([7]; 24 h): 25 to 74%; pest or weed control at 100 ppm (Erysiphe graminis—ERYSGT; 24 h): < 25%; pest or weed control at 100 ppm (Septoria tritici—SEPTTR): 25 to 74%; pest or weed control at 100 ppm ([8]; 24 h): 25 to 74%
COc1ccnc(C(=O)N[C@H](C(=O)O[C@@H](C)[C@H](OC(=O)C(C)C)[C@@H](Cc2ccccc2)C(=O)OCc2ccccc2)[C@@H](C)OC(C)=O)c1O [Compound 361] | > 80% | < 80% | > 80% | < 80% | < 80% | > 80% | < 25% |  |  |  |  | PUCCRT in vivo 1 Day Protectant [7, 10]: + +; pest or weed control at 100 ppm (Erysiphe graminis—ERYSGT; [10]): < 25%; pest or weed control at 100 ppm (Septoria tritici—SEPTTR; [10]): < 25%; pest or weed control at 100 ppm [8, 10]: 25 to 74%
COc1ccnc(C(=O)NC2CC(C)(C)C(Cl)C(Cl)[C@H](C)[C@H]2C)c1O (some centres unmarked) [Compound 281] | > 80% | < 80% | < 80% | < 80% | < 80% | > 80% | 25 to 74% | 25 to 74% | 25 to 74% | 25 to 74% | 25 to 74% | 
COc1ccnc(C(=O)N[C@H]2COC(=O)[C@H](Cc3ccccc3)[C@@H](OC(=O)C(C)C)[C@H](C)OC2=O)c1OC(=O)CCc1ccccc1 [Compound 650] | > 80% | < 80% |  |  | < 80% | < 80% | < 25% |  |  |  |  | inhibition at 25 ppm [3]: < 80%; inhibition at 25 ppm [4]: > 80%; PUCCRT in vivo 1 Day Protectant ([7]; in vivo): + +; pest or weed control at 100 ppm (Erysiphe graminis—ERYSGT; 24 h): < 25%; SEPTTR in vivo 1 Day Protectant (Septoria tritici—SEPTTR; in vivo): + +; LEPTNO in vivo 1 Day Protectant ([8]; in vivo): + +
